# ChEMBL document CHEMBL1127117 (Bioorg Med Chem Lett, 1993)
# Calls of active or inactive are those of the source. The rule behind the calls is not given here.
# Species on record: Mus musculus
# Assay: Compound was tested for inhibitory activity in oral mouse cholesterol biosynthesis assay
# Type: functional
row,SMILES,ED50
1,C=C(CCC12OC(C(=O)OCCC(C)C)C(O)(C(=O)OCOC(C)=O)C(C(=O)O)(O1)[C@H](OC(=O)/C=C/[C@@H](C)C[C@@H](C)CC)[C@H]2O)[C@@H](OC(C)=O)[C@H](C)Cc1ccccc1 (some centres undefined),6 mg/kg
2,C=C(CCC12OC(C(=O)O)C(O)(C(=O)O)C(C(=O)O)(O1)[C@H](OC(=O)/C=C/[C@@H](C)C[C@@H](C)CC)[C@H]2O)[C@@H](OC(C)=O)[C@H](C)Cc1ccccc1 (some centres undefined) [ZARAGOZIC ACID A],100 mg/kg
3,C=C(CCC12OC(C(=O)OCCC(C)C)C(O)(C(=O)OC)C(C(=O)O)(O1)[C@H](OC(=O)/C=C/[C@@H](C)C[C@@H](C)CC)[C@H]2O)[C@@H](OC(C)=O)[C@H](C)Cc1ccccc1 (some centres undefined),20 mg/kg
4,C=C(CCC12OC(C(=O)OCCC(C)C)C(O)(C(=O)OCOC(=O)C(C)(C)C)C(C(=O)O)(O1)[C@H](OC(=O)/C=C/[C@@H](C)C[C@@H](C)CC)[C@H]2O)[C@@H](OC(C)=O)[C@H](C)Cc1ccccc1 (some centres undefined),9 mg/kg

# System: Mus musculus
# Assay: Compound was tested for inhibitory activity in oral mouse cholesterol biosynthesis assay at the dose of 24 mg/Kg
# Type: functional
row,SMILES,inhibition in vivo at 24 mg/kg
1,C=C(CCC12OC(C(=O)OCCC(C)C)C(O)(C(=O)OCC)C(C(=O)O)(O1)[C@H](OC(=O)/C=C/[C@@H](C)C[C@@H](C)CC)[C@H]2O)[C@@H](OC(C)=O)[C@H](C)Cc1ccccc1 (some centres undefined),59%
2,C=C(CCC12OC(C(=O)OCCC(C)C)C(O)(C(=O)OCC(=O)OC)C(C(=O)O)(O1)[C@H](OC(=O)/C=C/[C@@H](C)C[C@@H](C)CC)[C@H]2O)[C@@H](OC(C)=O)[C@H](C)Cc1ccccc1 (some centres undefined),43%
3,C=CCOC(=O)C1(O)C(C(=O)OCCC(C)C)OC2(CCC(=C)[C@@H](OC(C)=O)[C@H](C)Cc3ccccc3)OC1(C(=O)O)[C@H](OC(=O)/C=C/[C@@H](C)C[C@@H](C)CC)[C@H]2O (some centres undefined),38%
4,C=C(CCC12OC(C(=O)OCCC(C)C)C(O)(C(=O)OCC(=O)N(C)C)C(C(=O)O)(O1)[C@H](OC(=O)/C=C/[C@@H](C)C[C@@H](C)CC)[C@H]2O)[C@@H](OC(C)=O)[C@H](C)Cc1ccccc1 (some centres undefined),12%
5,C=C(CCC12OC(C(=O)OCCC(C)C)C(O)(C(=O)OCc3ccccc3)C(C(=O)O)(O1)[C@H](OC(=O)/C=C/[C@@H](C)C[C@@H](C)CC)[C@H]2O)[C@@H](OC(C)=O)[C@H](C)Cc1ccccc1 (some centres undefined),50%
6,C=C(CCC12OC(C(=O)OCCC(C)C)C(O)(C(=O)OCC(=O)N(CC)CC)C(C(=O)O)(O1)[C@H](OC(=O)/C=C/[C@@H](C)C[C@@H](C)CC)[C@H]2O)[C@@H](OC(C)=O)[C@H](C)Cc1ccccc1 (some centres undefined),15%
7,C=C(CCC12OC(C(=O)OCCC(C)C)C(O)(C(=O)OCC(=O)c3ccc(Br)cc3)C(C(=O)O)(O1)[C@H](OC(=O)/C=C/[C@@H](C)C[C@@H](C)CC)[C@H]2O)[C@@H](OC(C)=O)[C@H](C)Cc1ccccc1 (some centres undefined),7%
8,C=C(CCC12OC(C(=O)OCCC(C)C)C(O)(C(=O)OCCOC)C(C(=O)O)(O1)[C@H](OC(=O)/C=C/[C@@H](C)C[C@@H](C)CC)[C@H]2O)[C@@H](OC(C)=O)[C@H](C)Cc1ccccc1 (some centres undefined),55%
9,C=C(CCC12OC(C(=O)OCCC(C)C)C(O)(C(=O)OCCCCCCCC)C(C(=O)O)(O1)[C@H](OC(=O)/C=C/[C@@H](C)C[C@@H](C)CC)[C@H]2O)[C@@H](OC(C)=O)[C@H](C)Cc1ccccc1 (some centres undefined),5%

# System: Mus musculus
# Assay: Compound was tested for inhibitory activity in oral mouse cholesterol biosynthesis assay at the dose of 40 mg/Kg
# Type: functional
row,SMILES,inhibition in vivo at 40 mg/kg
1,C=C(CCC12OC(C(=O)OCCC(C)C)C(O)(C(=O)O)C(C(=O)O)(O1)[C@H](OC(=O)/C=C/[C@@H](C)C[C@@H](C)CC)[C@H]2O)[C@@H](OC(C)=O)[C@H](C)Cc1ccccc1 (some centres undefined),61%

# System: Mus musculus
# Assay: Compound was tested for inhibitory activity in oral mouse cholesterol biosynthesis assay at the dose of 6 mg/Kg
# Type: functional
row,SMILES,inhibition in vivo at 6 mg/kg
1,C=C(CCC12OC(C(=O)OCCC(C)C)C(O)(C(=O)O)C(C(=O)OCOC(C)=O)(O1)[C@H](OC(=O)/C=C/[C@@H](C)C[C@@H](C)CC)[C@H]2O)[C@@H](OC(C)=O)[C@H](C)Cc1ccccc1 (some centres undefined),13%

# System: Mus musculus
# Assay: Compound was tested for inhibitory activity in oral mouse cholesterol biosynthesis assay at the dose of 24 mg/Kg; NA means not active
# Type: functional, organism-based
row,SMILES,inhibition
1,C=C(CCC12OC(C(=O)OCCC(C)C)C(O)(C(=O)O)C(C(=O)OC)(O1)[C@H](OC(=O)/C=C/[C@@H](C)C[C@@H](C)CC)[C@H]2O)[C@@H](OC(C)=O)[C@H](C)Cc1ccccc1 (some centres undefined),inactive
2,C=C(CCC12OC(C(=O)OCCC(C)C)C(O)(C(=O)OCC(=O)OC(C)(C)C)C(C(=O)O)(O1)[C@H](OC(=O)/C=C/[C@@H](C)C[C@@H](C)CC)[C@H]2O)[C@@H](OC(C)=O)[C@H](C)Cc1ccccc1 (some centres undefined),inactive
3,C=CCOC(=O)C12OC(CCC(=C)[C@@H](OC(C)=O)[C@H](C)Cc3ccccc3)(OC(C(=O)OCCC(C)C)C1(O)C(=O)O)[C@H](O)[C@H]2OC(=O)/C=C/[C@@H](C)C[C@@H](C)CC (some centres undefined),inactive
4,C=C(CCC12OC(C(=O)OCCC(C)C)C(O)(C(=O)O)C(C(=O)OCc3ccccc3)(O1)[C@H](OC(=O)/C=C/[C@@H](C)C[C@@H](C)CC)[C@H]2O)[C@@H](OC(C)=O)[C@H](C)Cc1ccccc1 (some centres undefined),inactive
